Experimental data as given in ChEMBL document CHEMBL1697731, “Cheminformatics analysis of assertions mined from literature that describe drug-induced liver injury in different species” (Chem Res Toxicol, 2010).

Columns and labels:
Hepatotoxicity [1] = assay: Literature-mined compound from Fourches et al multi-species drug-induced liver injury (DILI) dataset, effect in humans; conditions: human
Hepatotoxicity [2] = assay: Literature-mined compound from Fourches et al multi-species drug-induced liver injury (DILI) dataset, effect in rodents; conditions: rodentia
Hepatotoxicity [3] = assay: Literature-mined compound from Fourches et al multi-species drug-induced liver injury (DILI) dataset, effect in non-rodents

Row | Compound | Hepatotoxicity (Hepatotoxicity [1]) | Hepatotoxicity (Hepatotoxicity [2]) | Hepatotoxicity (Hepatotoxicity [3]) | Hepatotoxicity (Hepatotoxicity [1]; Liver) | Hepatotoxicity (Hepatotoxicity [2]; Liver) | Hepatotoxicity (Hepatotoxicity [3]; Liver)
1 | Nc1nc2c(c(=O)[nH]1)N(C=O)C(CNc1ccc(C(=O)N[C@@H](CCC(=O)O)C(=O)O)cc1)CN2 (stereo partly drawn) [LEUCOVORIN] | drug-induced liver injury reported | drug-induced liver injury reported | no drug-induced liver injury reported | – | – | –
2 | NNc1nncc2ccccc12 [HYDRALAZINE] | – | – | – | drug-induced liver injury reported | drug-induced liver injury reported | drug-induced liver injury reported
3 | CN1CCN2c3ccccc3Cc3ccccc3C2C1 (stereo not drawn) [MIANSERIN] | drug-induced liver injury reported | drug-induced liver injury reported | no drug-induced liver injury reported | – | – | –
4 | CO[C@@]1(NC(=O)C2SC(=C(C(N)=O)C(=O)O)S2)C(=O)N2C(C(=O)O)=C(CSc3nnnn3C)CS[C@@H]21 (stereo partly drawn) [CEFOTETAN] | drug-induced liver injury reported | no drug-induced liver injury reported | no drug-induced liver injury reported | – | – | –
5 | COC(=O)C1=C(C)NC(C)=C(C(=O)OC)C1c1ccccc1[N+](=O)[O-] [NIFEDIPINE] | drug-induced liver injury reported | drug-induced liver injury reported | drug-induced liver injury reported | – | – | –
6 | CCCCC1C(=O)N(c2ccccc2)N(c2ccc(O)cc2)C1=O (stereo not drawn) [OXYPHENBUTAZONE ANHYDROUS] | no drug-induced liver injury reported | drug-induced liver injury reported | no drug-induced liver injury reported | – | – | –
7 | Oc1c(Cl)cc(Cl)c(Cl)c1Cc1c(O)c(Cl)cc(Cl)c1Cl [HEXACHLOROPHENE] | no drug-induced liver injury reported | drug-induced liver injury reported | no drug-induced liver injury reported | – | – | –
8 | O=C(O)CCc1nc(-c2ccccc2)c(-c2ccccc2)o1 [OXAPROZIN] | drug-induced liver injury reported | no drug-induced liver injury reported | no drug-induced liver injury reported | – | – | –
9 | Nc1nc(=O)[nH]cc1F [FLUCYTOSINE] | no drug-induced liver injury reported | drug-induced liver injury reported | no drug-induced liver injury reported | – | – | –
10 | OCCN1CCN(CCCN2c3ccccc3Sc3ccc(Cl)cc32)CC1 [PERPHENAZINE] | no drug-induced liver injury reported | drug-induced liver injury reported | no drug-induced liver injury reported | – | – | –
11 | FC(F)OC(Cl)C(F)(F)F (stereo not drawn) [ISOFLURANE] | drug-induced liver injury reported | drug-induced liver injury reported | drug-induced liver injury reported | – | – | –
12 | Cc1ccc(S(=O)(=O)[N-]Cl)cc1.[Na+] [CHLORAMINE-T ANHYDROUS] | no drug-induced liver injury reported | drug-induced liver injury reported | drug-induced liver injury reported | – | – | –
13 | Cn1c(=O)c2c(ncn2C)n(C)c1=O [CAFFEINE] | drug-induced liver injury reported | drug-induced liver injury reported | no drug-induced liver injury reported | – | – | –
14 | CO[C@@H]1[C@@H](OC(N)=O)[C@@H](O)[C@H](Oc2ccc3c(O)c(NC(=O)c4ccc(O)c(CC=C(C)C)c4)c(=O)oc3c2C)OC1(C)C [NOVOBIOCIN] | drug-induced liver injury reported | drug-induced liver injury reported | no drug-induced liver injury reported | – | – | –
15 | CC(C)c1cc(C(C)C)c(CC(=O)NS(=O)(=O)Oc2c(C(C)C)cccc2C(C)C)c(C(C)C)c1 [AVASIMIBE] | drug-induced liver injury reported | drug-induced liver injury reported | no drug-induced liver injury reported | – | – | –
16 | COC(F)(F)C(Cl)Cl [METHOXYFLURANE] | drug-induced liver injury reported | drug-induced liver injury reported | no drug-induced liver injury reported | – | – | –
17 | O=C(Cc1cccs1)N[C@@H]1C(=O)N2C(C(=O)[O-])=C(C[n+]3ccccc3)CS[C@H]12 [CEPHALORIDINE] | drug-induced liver injury reported | no drug-induced liver injury reported | no drug-induced liver injury reported | – | – | –
18 | COc1ccc(Cl)cc1C(=O)NCCc1ccc(S(=O)(=O)NC(=O)NC2CCCCC2)cc1 [GLYBURIDE] | drug-induced liver injury reported | drug-induced liver injury reported | no drug-induced liver injury reported | – | – | –
19 | COc1cc2c(cc1O)CCN[C@]21CS[C@@H]2c3c(OC(C)=O)c(C)c4c(c3[C@H](COC1=O)N1[C@@H]2[C@H]2c3c(cc(C)c(OC)c3O)C[C@@H]([C@@H]1O)N2C)OCO4 [TRABECTEDIN] | drug-induced liver injury reported | drug-induced liver injury reported | no drug-induced liver injury reported | – | – | –
20 | CC1=C(CC(=O)NCc2ccccc2)c2cc(F)ccc2/C1=C\c1ccncc1.Cl [CP-461] | drug-induced liver injury reported | no drug-induced liver injury reported | no drug-induced liver injury reported | – | – | –
21 | CN(C)c1ccc(O)c2c1C[C@H]1C[C@H]3[C@H](N(C)C)C(O)=C(C(N)=O)C(=O)[C@@]3(O)C(O)=C1C2=O [MINOCYCLINE] | drug-induced liver injury reported | drug-induced liver injury reported | no drug-induced liver injury reported | – | – | –
22 | O=C(OCC(COC(=O)c1cccnc1)(COC(=O)c1cccnc1)COC(=O)c1cccnc1)c1cccnc1 [NICERITROL] | no drug-induced liver injury reported | no drug-induced liver injury reported | drug-induced liver injury reported | – | – | –
23 | C[C@H]1C[C@@H]2[C@H]([C@@H](O)C[C@@]3(C)[C@H]2CC[C@]3(O)C(=O)CO)[C@@]2(C)C=CC(=O)C=C12 [METHYLPREDNISOLONE] | drug-induced liver injury reported | drug-induced liver injury reported | no drug-induced liver injury reported | – | – | –
24 | CCn1cc(C(=O)O)c(=O)c2ccc(C)nc21 [NALIDIXIC ACID] | drug-induced liver injury reported | drug-induced liver injury reported | no drug-induced liver injury reported | – | – | –
25 | C#C[C@]1(O)CC[C@H]2[C@@H]3CCC4=Cc5oncc5C[C@]4(C)[C@H]3CC[C@@]21C [DANAZOL] | drug-induced liver injury reported | no drug-induced liver injury reported | no drug-induced liver injury reported | – | – | –
26 | SILYMARIN | drug-induced liver injury reported | drug-induced liver injury reported | no drug-induced liver injury reported | – | – | –
